Test results published in publication PMC9501810, “Bitter Peptides YFYPEL, [sequence], and [sequence], Released during Gastric Digestion of Casein, Stimulate Mechanisms of Gastric Acid Secretion via Bitter Taste Receptors TAS2R16 and TAS2R38” (Journal of Agricultural and Food Chemistry, 2022).
“And” between values parts separate entries of the source, which are not always exact repeats. Identical values can stand only once.

Legend:
Type in all cases: cell-based, human
TAS2R60 = experiment: RT-qPCR gene expression of TAS2R60 in HGT-1 cells; conditions: incubation 15/30/60/120 min, VAPFPEVF 17.5 µM, YFYPEL 0.03 µM, YQEPVLGPVRGPFPIIV 0.4 µM, expression not detectable with or without treatment
Procedure: (§1) For mRNA expression analysis, 800,000 cells were seeded in a T25 cell culture flask (25 cm^2) 1 day before the experiment. After incubation with 17.5 μM […], 0.03 μM YFYPEL, or 0.4 μM […] for 15, 30, 60, and 120 min, RNA was isolated using the peqGOLD RNA Kit (VWR Peqlab, USA) following the manufacturer’s protocol. Determination of RNA concentration (A260/A280 between 2.03 and 2.09) was performed on a NanoDrop One^c (Thermo Fisher Scientific Inc., USA). RNA integrity number (RIN 9.9–10.0, version 2.6, assay class Eukaryote Total RNA Nano) was analyzed using a 2100 Bioanalyzer (Agilent Technologies, USA). Removal of gDNA and synthesis of cDNA were performed using the iScript gDNA Clear cDNA Synthesis Kit (BioRad, Feldkirchen, Germany) following the manufacturer’s protocol. Real-time-qPCR (RT-qPCR) was performed with 50 ng cDNA amplified with SsoAdvanced Universal SYBR Green Supermix (Bio-Rad Laboratories, Inc., USA). The sequences of the forward and reverse primers of the 25 TAS2Rs were taken from Liszt et al.([13]) (Supporting Information Table-SI 3). Verified primers for the TAS1Rs (TAS1R1: qHsaCID0013443; TAS1R2: qHsaCID0016106; TAS1R3: qHsaCED0002321) and for MAPK1 (qHsaCEP0050000) were obtained from Bio-Rad Laboratories. PPIA[37] and GAPDH[38] were used as reference genes. The effects of the peptides on gene expression were analyzed in comparison to untreated control cells.

TAS2R1 = experiment: RT-qPCR gene expression of TAS2R1 in HGT-1 cells; conditions: VAPFPEVF 17.5 µM, YFYPEL 0.03 µM, YQEPVLGPVRGPFPIIV 0.4 µM, normalized to PPIA and GAPDH and untreated cells, mean, n = 3–5
Procedure: as §1

TAS2R38 = experiment: RT-qPCR gene expression of TAS2R38 in HGT-1 cells; conditions: VAPFPEVF 17.5 µM, YFYPEL 0.03 µM, YQEPVLGPVRGPFPIIV 0.4 µM, normalized to PPIA and GAPDH and untreated cells, mean, n = 3–5
Procedure: as §1, with “cells. […]” for “cells.”

TAS2R42 = experiment: RT-qPCR gene expression of TAS2R42 in HGT-1 cells; conditions: VAPFPEVF 17.5 µM, YFYPEL 0.03 µM, YQEPVLGPVRGPFPIIV 0.4 µM, normalized to PPIA and GAPDH and untreated cells, mean, n = 3–5
Procedure: as §1

TAS2R19 = experiment: RT-qPCR gene expression of TAS2R19 in HGT-1 cells; conditions: VAPFPEVF 17.5 µM, YFYPEL 0.03 µM, YQEPVLGPVRGPFPIIV 0.4 µM, normalized to PPIA and GAPDH and untreated cells, mean, n = 3–5
Procedure: as §1

TAS2R10 = experiment: RT-qPCR gene expression of TAS2R10 in HGT-1 cells; conditions: VAPFPEVF 17.5 µM, YFYPEL 0.03 µM, YQEPVLGPVRGPFPIIV 0.4 µM, normalized to PPIA and GAPDH and untreated cells, mean, n = 3–5
Procedure: as §1

TAS2R5 = experiment: RT-qPCR gene expression of TAS2R5 in HGT-1 cells; conditions: VAPFPEVF 17.5 µM, YFYPEL 0.03 µM, YQEPVLGPVRGPFPIIV 0.4 µM, normalized to PPIA and GAPDH and untreated cells, mean, n = 3–5
Procedure: as §1

TAS2R13 = experiment: RT-qPCR gene expression of TAS2R13 in HGT-1 cells; conditions: VAPFPEVF 17.5 µM, YFYPEL 0.03 µM, YQEPVLGPVRGPFPIIV 0.4 µM, normalized to PPIA and GAPDH and untreated cells, mean, n = 3–5
Procedure: as §1

TAS2R46 = experiment: RT-qPCR gene expression of TAS2R46 in HGT-1 cells; conditions: VAPFPEVF 17.5 µM, YFYPEL 0.03 µM, YQEPVLGPVRGPFPIIV 0.4 µM, normalized to PPIA and GAPDH and untreated cells, mean, n = 3–5
Procedure: as §1

TAS1R1 = experiment: RT-qPCR gene expression of TAS1R1 in HGT-1 cells; conditions: 0.03 µM YFYPEL, 30 min, p < 0.001
Procedure: as §1

TAS2R4 = experiment: RT-qPCR gene expression of TAS2R4 in HGT-1 cells; conditions: VAPFPEVF 17.5 µM, YFYPEL 0.03 µM, YQEPVLGPVRGPFPIIV 0.4 µM, normalized to PPIA and GAPDH and untreated cells, mean, n = 3–5
Procedure: as §1

TAS2R14 = experiment: RT-qPCR gene expression of TAS2R14 in HGT-1 cells; conditions: VAPFPEVF 17.5 µM, YFYPEL 0.03 µM, YQEPVLGPVRGPFPIIV 0.4 µM, normalized to PPIA and GAPDH and untreated cells, mean, n = 3–5
Procedure: as §1

TAS2R9 = experiment: RT-qPCR gene expression of TAS2R9 in HGT-1 cells; conditions: VAPFPEVF 17.5 µM, YFYPEL 0.03 µM, YQEPVLGPVRGPFPIIV 0.4 µM, normalized to PPIA and GAPDH and untreated cells, mean, n = 3–5
Procedure: as §1

TAS2R31 = experiment: RT-qPCR gene expression of TAS2R31 in HGT-1 cells; conditions: VAPFPEVF 17.5 µM, YFYPEL 0.03 µM, YQEPVLGPVRGPFPIIV 0.4 µM, normalized to PPIA and GAPDH and untreated cells, mean, n = 3–5
Procedure: as §1

TAS2R30 = experiment: RT-qPCR gene expression of TAS2R30 in HGT-1 cells; conditions: VAPFPEVF 17.5 µM, YFYPEL 0.03 µM, YQEPVLGPVRGPFPIIV 0.4 µM, normalized to PPIA and GAPDH and untreated cells, mean, n = 3–5
Procedure: as §1

## YFYPEL [bitter casein peptide αS1-CN144–149]
TAS2R60
  change in gene expression of TAS2R60: not detected
TAS2R1; incubation 15 min
  change in gene expression of TAS2R1: 0.36 fold change
TAS2R1; incubation 30 min
  change in gene expression of TAS2R1: 1.03 fold change
TAS2R1; incubation 60 min
  change in gene expression of TAS2R1: 0.55 fold change
TAS2R1; incubation 120 min
  change in gene expression of TAS2R1: 0.73 fold change
TAS2R38; incubation 15 min
  change in gene expression of TAS2R38: 2.96 fold change
TAS2R38; incubation 30 min
  change in gene expression of TAS2R38: 3.40 fold change
TAS2R38; incubation 60 min
  change in gene expression of TAS2R38: 2.39 fold change
TAS2R38; incubation 120 min
  change in gene expression of TAS2R38: 2.91 fold change
TAS2R42; incubation 15 min
  change in gene expression of TAS2R42: 1.17 fold change
TAS2R42; incubation 30 min
  change in gene expression of TAS2R42: 0.55 fold change
TAS2R42; incubation 60 min
  change in gene expression of TAS2R42: 0.69 fold change
TAS2R42; incubation 120 min
  change in gene expression of TAS2R42: 0.93 fold change
TAS2R19; incubation 15 min
  change in gene expression of TAS2R19: 1.60 fold change
TAS2R19; incubation 30 min
  change in gene expression of TAS2R19: 0.82 fold change
TAS2R19; incubation 60 min
  change in gene expression of TAS2R19: 0.79 fold change
TAS2R19; incubation 120 min
  change in gene expression of TAS2R19: 1.05 fold change
TAS2R10; incubation 15 min
  change in gene expression of TAS2R10: 0.64 fold change
TAS2R10; incubation 30 min
  change in gene expression of TAS2R10: 0.41 fold change and 0.41 ± 0.05 fold change
TAS2R10; incubation 60 min
  change in gene expression of TAS2R10: 0.72 fold change
TAS2R10; incubation 120 min
  change in gene expression of TAS2R10: 0.90 fold change
TAS2R5; incubation 15 min
  change in gene expression of TAS2R5: 1.34 fold change
TAS2R5; incubation 30 min
  change in gene expression of TAS2R5: 1.03 fold change
TAS2R5; incubation 60 min
  change in gene expression of TAS2R5: 0.90 fold change
TAS2R5; incubation 120 min
  change in gene expression of TAS2R5: 1.02 fold change
TAS2R13; incubation 15 min
  change in gene expression of TAS2R13: 1.14 fold change
TAS2R13; incubation 30 min
  change in gene expression of TAS2R13: 0.53 fold change
TAS2R13; incubation 60 min
  change in gene expression of TAS2R13: 0.78 fold change
TAS2R13; incubation 120 min
  change in gene expression of TAS2R13: 0.88 fold change
TAS2R46; incubation 15 min
  change in gene expression of TAS2R46: 1.70 fold change
TAS2R46; incubation 30 min
  change in gene expression of TAS2R46: 0.73 fold change
TAS2R46; incubation 60 min
  change in gene expression of TAS2R46: 1.01 fold change
TAS2R46; incubation 120 min
  change in gene expression of TAS2R46: 1.30 fold change
TAS1R1
  change in expression of TAS1R1: decrease
TAS2R4; incubation 15 min
  change in gene expression of TAS2R4: 1.24 fold change
TAS2R4; incubation 30 min
  change in gene expression of TAS2R4: 0.81 fold change
TAS2R4; incubation 60 min
  change in gene expression of TAS2R4: 0.92 fold change
TAS2R4; incubation 120 min
  change in gene expression of TAS2R4: 1.13 fold change
TAS2R14; incubation 15 min
  change in gene expression of TAS2R14: 1.11 fold change
TAS2R14; incubation 30 min
  change in gene expression of TAS2R14: 0.92 fold change
TAS2R14; incubation 60 min
  change in gene expression of TAS2R14: 0.99 fold change
TAS2R14; incubation 120 min
  change in gene expression of TAS2R14: 1.21 fold change
TAS2R9; incubation 15 min
  change in gene expression of TAS2R9: 0.66 fold change
TAS2R9; incubation 30 min
  change in gene expression of TAS2R9: 2.64 fold change
TAS2R9; incubation 60 min
  change in gene expression of TAS2R9: 3.01 fold change
TAS2R9; incubation 120 min
  change in gene expression of TAS2R9: 1.41 fold change
TAS2R31; incubation 15 min
  change in gene expression of TAS2R31: 1.65 fold change
TAS2R31; incubation 30 min
  change in gene expression of TAS2R31: 0.91 fold change
TAS2R31; incubation 60 min
  change in gene expression of TAS2R31: 0.96 fold change
TAS2R31; incubation 120 min
  change in gene expression of TAS2R31: 1.09 fold change
TAS2R30; incubation 15 min
  change in gene expression of TAS2R30: 1.79 fold change
TAS2R30; incubation 30 min
  change in gene expression of TAS2R30: 0.62 fold change
TAS2R30; incubation 60 min
  change in gene expression of TAS2R30: 0.89 fold change
TAS2R30; incubation 120 min
  change in gene expression of TAS2R30: 1.15 fold change
